≈ marks a conversion by molar mass, not a printed value.
Columns and labels:
two-spotted mite = assay: Small scale field tests, mite control on Tendergreen bean plants; format: in vivo, Tetranychus urticae (Koch); conditions: for Average mite control rating, 3rd Reading: 21 days
Description: Selected enol ester compositions were evaluated in small scale field tests to determine whether the excellent miticidal properties observed in greenhouse testing would be obtained under actual conditions of field use.
In Test I 500 ppm aqueous dispersions were prepared as described above. In tests II and III various dilutions of the test compounds ranging from 125 ppm to 1000 ppm were prepared and used. In each case the test dispersions were applied to a minimum of two replicate test plots measuring five feet in length and containing healthy young Tendergreen bean plants which had previously been infested with two-spotted mite (Tetranychus urticae (Koch)). Dispersions of the test compounds at each concentration level were applied to individual replicate plots using 1/2 gallon garden sprayers equipped with spray nozzles to apply approximately 250 ml. of test solution to each replicate. The effectiveness of the treatment was determined at intervals following application, by microscopic examination of five leaves selected at random from each replicate plot. The degree of effectiveness for each leaf was rated on a scale of from 1 to 5 with 1 indicating no control in reference to a standard sprayed with a mixture of solution less test compound and 5 indicating complete control. The results obtained from inspection of sample leaves were then averaged to give a numerical indication of the degree of control for each compound tested at the concentration applied.

[1] = system: egg of the two-spotted mite; assay: Mite Ovicide Test; format: in vivo, Tetranychus urticae (Koch); conditions: spray on eggs, 4 days
Excerpt: (§1) The test procedures were as follows:
The plants were allowed to dry thoroughly.
(§2) Compositions were rated on the basis of percent kill with a rating of 1 indicating no mortality; 3 signifying an approximately 50% mortality and 5 indicating 100% mortality at the indicated dosage.

[2] = system: egg forms of the two-spotted mite; assay: Fumigant toxicity, Method 2 (treated plants near untreated infested plants); format: in vivo; conditions: 500 ppm dip, 4 days
Description: (§3) Two methods were used to evaluate fumigant properties:
Method 2: Excised bean plants infested with egg forms of the two-spotted mite were dipped in an aqueous preparation (500 ppm) of the test compound. The treated plants were transferred to 250 ml. Erlenmeyer flasks containing 100 ml. of tap water. Four flasks holding treated plants were evenly spaced around a similar flask in which were placed untreated mite-infested plants so that the leaves of the treated foliage were in close proximity (1-3 inches) to the untreated plants. Four days later mortality determinations were made.

Bean = assay: Phytotoxicity, bean; conditions: 2500 ppm, 10 days
Description: (§5) Experiments were also conducted to determine the phytotoxicity of representative enol ester compositions with respect to healthy fresh plants. […] The test plants were sprayed in accordance with the procedure described above for the Mite Foliage Spray Test so as to deliver approximately 100 milliliters of test solution to the leaves of each plant tested. The sprayed plants and controls were set aside for approximately 1 hour to allow the solutions to dry and were then placed in the greenhouse. After 10 days the plants were visually inspected to determine the extent of foliage injury. A rating of 1 indicates no perceptible injury; 5 indicates the plant was dead and ratings of 2, 3 and 4 indicate intermediate degrees of injury based upon the number and extent to which leaves were injured.

Cotton = assay: Phytotoxicity, cotton; conditions: 2500 ppm, 10 days
Description: as §5

Corn = assay: Phytotoxicity, corn; conditions: 2500 ppm, 10 days
Description: as §5

Tomato = assay: Phytotoxicity, tomato; conditions: 2500 ppm, 10 days
Description: as §5

[3] = system: Perennial rye grass, crabgrass, red root pigweed, mustard; assay: Preliminary Herbicide Seed Germination Test; conditions: rating/maximum 40: 100 and 1000 ppm, four species, each rated 1 (no injury) to 5 (no seedlings emerged), 10-12 days
Mite Adults = assay: whole plant or invertebrate
Description: Adults and nymphal stages of the two-spotted mite (tetranychus urticae (Koch)), reared on Tendergreen bean plants at 80±5° F. and 50±5 percent relative humidity, were the test organisms. Infested leaves from a stock culture were placed on the primary leaves of two bean plants 6 to 8 inches in height, growing in a 21/2 inch clay pot. 150-200 Mites, a sufficient number for testing, transferred from the excised leaves to the fresh plants in a period of 24 hours. Following the 24 hour transfer period, the excised leaves were removed from the infested plants. The test compounds were formulated by diluting the stock suspension with water to provide suspensions containing the desired amount of test compound per million parts of final formulation. The potted plants (one pot per compound) were placed on a revolving turntable and sprayed with 100-110 milliliters of test compound formulation by use of a DeVilbis spray gun set at 40 psi. air pressure. This application, which lasted 30 seconds, was sufficient to wet the plants to run-off. As a control, 100-110 milliliters of a water solution containing acetone and emulsifier in the same concentrations as the test compound formulation, but containing no test compound, were also sprayed on infested plants. The sprayed plants were held at 80±5° F. and 50±5 percent relative humidity for 4 days, after which, a mortality count of motile forms was made. Microscopic examination for motile forms was made on the leaves of the test plants. Any individual which was capable of locomotion upon prodding was considered living.
(§4) Side by side comparison tests were conducted to determine the effectiveness of selected enol ester compounds relative to (bis(p-chlorophenyl)trichlorethanol) a miticide sold under the trademark Kelthane and ovex (p-chlorophenyl-p-chlorobenzene sulfonate) two widely used commercial miticides.

Mite Ova = assay: whole plant or invertebrate
Description: The test organism was the egg of the two-spotted mite (Tetranychus urticae (Koch)), as obtained from adults reared on Tendergreen bean plants under controlled conditions of 80±5° F. and 50±5 percent relative humidity. Heavily infested leaves from a stock culture were placed on the primary leaves of two bean plants 6 to 8 inches in height, growing in a 21/2 inch clay pot. Females were allowed to oviposit for a period of 48 hours and then the leaves of the infested plants were dipped in a solution containing 800 parts of tetraethyl pyrophosphate per million parts of water in order to destroy the reproductory forms and thus prevent further egg laying. […] The plants were allowed to dry thoroughly. […] The potted plants (one pot per compound) were placed on a revolving turntable and sprayed with 100-110 milliliters of test compound formulation by use of a DeVilbis spray gun set at 40 psig. air pressure. This application, which lasted 30 seconds, was sufficient to wet the plants to run-off. As a control, 100-110 milliliters of a water solution containing acetone and emulsifier in the same concentrations as the test compound formulation, but containing no test compound, were also sprayed on plants infested with eggs. The sprayed plants were held at 80±5° F. and 50±5 percent relative humidity for 4 days, after which a microscopic examination was made of unhatched (dead) and hatched (living) eggs.
as §4

[4] = system: eggs of the two-spotted mite; assay: Fumigant toxicity, Method 1 (deposit in pie plate); format: in vivo; conditions: deposit approx. 160 μg per square cm, 4 days
Description: as §3
Method 1: Fifty mg. of each compound were dissolved in 5 ml. of acetone and poured into a 20 cm. (bottom diameter) Pyrex No. 210 pie plate. The acetone was allowed to evaporate leaving a deposit of approximately 160 μg. per square cm. The plate was then placed in the bottom of a 50 pound metal lard container (about 30 cm. in diameter and 34 cm. high). Two excised bean plants, held in a 250 ml. Erlenmeyer flask containing 100 ml. of tap water and infested with eggs of the two-spotted mite, were placed in the center of the pie plate. The container was held in the insectary (temperature 80±5° F., 50±5% R. H.) for four days before mortality determinations were made.

[5] = system: adults and nymphal stages of the two-spotted mite; assay: Mite Foliage Spray Test; format: in vivo, Tetranychus urticae (Koch); conditions: 4 days
Excerpt: as §1, §2

[6] = concentration to kill 95 percent

## Cc1cc(C)c(C2=C(OC(=O)C(C)(C)C)c3ccccc3C2=O)c(C)c1 [2-(2',4',6'-Trimethylphenyl)-3-(pivaloyloxy)indone]
two-spotted mite; Test I, 500 ppm, 4 days, scale 1 (no control) to 5 (complete control)
  Average mite control rating, 1st Reading: 4.0
two-spotted mite; Test I, 500 ppm, 8 days, scale 1 to 5
  Average mite control rating, 2nd Reading: 3.5
two-spotted mite; Test II, 250 ppm, 3 days, scale 1 to 5
  Average mite control rating, 1st Reading: 3.0
two-spotted mite; Test II, 250 ppm, 7 days, scale 1 to 5
  Average mite control rating, 2nd Reading: 4.0
two-spotted mite; Test II, 500 ppm, 3 days, scale 1 to 5
  Average mite control rating, 1st Reading: 2.3
two-spotted mite; Test II, 500 ppm, 7 days, scale 1 to 5
  Average mite control rating, 2nd Reading: 4.7
two-spotted mite; Test III, 125 ppm, 3 days, scale 1 to 5
  Average mite control rating, 1st Reading: 1.7
two-spotted mite; Test III, 125 ppm, 7 days, scale 1 to 5
  Average mite control rating, 2nd Reading: 2.3
two-spotted mite; Test III, 125 ppm, scale 1 to 5
  Average mite control rating, 3rd Reading: 1.7
two-spotted mite; Test III, 250 ppm, 3 days, scale 1 to 5
  Average mite control rating, 1st Reading: 3.0
two-spotted mite; Test III, 250 ppm, 7 days, scale 1 to 5
  Average mite control rating, 2nd Reading: 4.0
two-spotted mite; Test III, 250 ppm, scale 1 to 5
  Average mite control rating, 3rd Reading: 3.7
two-spotted mite; Test III, 500 ppm, 3 days, scale 1 to 5
  Average mite control rating, 1st Reading: 3.0
two-spotted mite; Test III, 500 ppm, 7 days, scale 1 to 5
  Average mite control rating, 2nd Reading: 4.0
two-spotted mite; Test III, 500 ppm, scale 1 to 5
  Average mite control rating, 3rd Reading: 4.5
[1]
  Mite Ova rating: 5 (100% mortality)
[2]
  Fumigant Toxicity Method 2: 5 (80-100% control)
Bean
  Phytotoxicity Rating, Bean: 1
Cotton
  Phytotoxicity Rating, Cotton: 3
Corn
  Phytotoxicity Rating, Corn: 3
Tomato
  Phytotoxicity Rating, Tomato: 3
[3]
  Herbicide (total preemergence rating): 32/40
Mite Adults; Tetranychus urticae, read-out: Mite Adults LD50
  LC50: 5 µg/mL (≈ 14.3 µM)
Mite Adults; [6]
  Mite Adults LD95: 170 ppm
Mite Ova; Tetranychus urticae, read-out: Mite Ova LD50
  LC50: 3 µg/mL (≈ 8.61 µM)
Mite Ova; [6]
  Mite Ova LD95: 9 ppm
[4]
  Fumigant Toxicity Method 1: 5 (80-100% control)
[5]
  Mite Adult rating: 5 (100% mortality)
